Results reported in US11040056B2, “Benzimidazoles that enhance the activity of oligonucleotides” (The University of North Carolina at Chapel Hill, priority 2018, dated 2021).

Columns and labels:
[1] = test system: CFTR channel activity in human bronchial epithelial cells (HBEC) from a 3849+10 kbC-T homozygous patient; experiment: Ussing chamber analysis of CFTR function in 3849+10 kbC-T HBEC; format: cell-based
Excerpt: FIG. 11. CFTR activity restored to CF splicing mutation 3849+10 kbC-T using SSOs. SSOs were delivered in vitro by electroporation (˜100% efficiency), CF primary cells were differentiated on permeable supports and tested. Panel A. PCR analysis. The lower band is the correctly spliced CFTR. Panel B. Functional correction by Ussing chamber analysis.
FIG. 12. OEC Mediated Delivery of a SSO in 3849+10 kbC-T HBEC. Well-differentiated human bronchial epithelial cells (HBEC) derived from a 3849+10 kbC-T homozygous patient were incubated with corrective (LNA) SSO A from FIG. 1 (1 uM, overnight). Cells were then incubated with OEC UNC2383 in the luminal or serosal bath (4 uM, 2 hs). Both the SSO and OEC were added in cell growing medium. Seventy two hour later, HBEC were analyzed in Ussing chamber for CFTR function. Orkambi® was tested in parallel inserts.
Results: In vitro studies were performed in well-differentiated HBEC cells derived from a homozygous 3849+10 kbC→T CF patient (CF HBEC) treated with one dose of a specific SSO (1 uM, 12 hs) followed by one dose of OEC (apical or basolateral delivery, 2-4 uM, 2-3 hs). A significant increase of forskolin-stimulated CFTR activity in Ussing chamber analyses was observed 24-96 hs after SSO+OEC treatment compared to SSO alone treatment or vehicle. OEC was efficacious delivered apically as well as basolaterally. Transepithelial resistance and microscopy tests were implemented to monitor cytotoxicity, which was negligible for both SSO and OEC (FIG. 12). In vivo studies were performed in a transgenic mouse model that has a SSO-inducible EGFP reporter.
SSOs (100 nM) were introduced in airway epithelial cells derived from a 3849+10 kbC-T homozygous CF patient in suspension by electroporation using the Neon system, program A4. Cells were differentiated for 2 weeks in culture on human collagen-coated permeable supports (Millipore) before being tested in Ussing chambers following methods described in Kreda et al. […] “Characterization of Wild-Type and ΔF508 Cystic Fibrosis Transmembrane Regulator in Human Respiratory Epithelia” Mol. Biol. Cell 16(5):2154-2167 (100 uM Amiloride, Amil; 10 uM Forskolin, Fsk; 20 uM CFTR inhibitor 172). After Ussing chamber analysis, cells were lysed and assayed for RT-PCR as described in Wang et al 2017 (FIG. 11).
(SEQ ID NO:2), C (5′+G*mA*mG*mU*+C*mU*mU**mU*mA*+C*mU*mC*mA*mC*mC*+A*mU*mU*mU) (SEQ ID NO:3) (Locked Nucleic Acid (LNA)=+, PS=*, 2′OMe=m). In SSO sequences A, B, and C the underlined bases indicate oligo bases that match up to the bases in the mutated splice site in the 3849+10 kb C-T CFTR splicing mutation. MM623 or SSO623 sequences are described herein. […]

[2] = test system: EGFP654 mouse tracheal epithelial cells (MTEC); experiment: Splicing correction (EGFP expression) in EGFP654 mouse tracheal epithelial cells; format: cell-based; conditions: 1 uM SSO PS623 basolateral overnight, 3 uM OEC apical 2 hr
Method: FIG. 13. EGFP654 Mouse tracheal cells. Well-differentiated tracheal epithelial cells derived from the EGFP654 mouse were treated basolaterally with 1 uM SSO PS623 (overnight) and apically with 3 uM OEC2383 (2 hr) or vehicle. Confocal microscopy images (xy, xz planes), bar=20 um.
FIG. 15B: P-PMO+OEC mediated splicing correction in EGFP654 MTEC. Well-differentiated cultures of primary tracheal cells (MTEC) derived from the EGFP654 mouse were treated with only one dose of P-PMO“654” (0.5 uM, overnight) followed by vehicle (−) or OEC2383 or OEC7938 (+), (10 uM, 2 hs). Both the SSO and OEC were added in cell medium either into the basolateral (BL, 400 ul) or the apical (AP, 30 ul) sides. MTEC were imaged in face at low mag. with a 10× lens in a fluorescence microscope, after 48 hs and 65 days post-treatment. All wells had the same total cell numbers. Vehicle controls<10 cells/well; n=3, bar=70 um. 1) Basolateral delivery of one treatment of P-PMO and OEC corrected>70% MTEC/well at 48 hs post-treatment. EGFP expression was still evident in large groups of cells after 65 days.
Methods: SSO623 (1 uM) was incubated basolaterally overnight in well-differentiated primary tracheal epithelial cells (MTEC) derived from the EGFP654 mouse (Wang et al, 2017); OEC2383 was administered apically or basolaterally (1-4 uM for 2-3 hs). […]

**Q.** O=C(Nc1nc2ccccc2n1CCN1CCCC1)c1cc2cc(Cl)ccc2o1 [UNC2383] was tested. Which “CFTR channel activity / functional correction” value ([1]; SSO A 1 uM overnight, OEC 4 uM 2 hs luminal or serosal, 72 h, approved drugs in parallel) did it give?
**A.** significant enhancement

**Q.** What about the “oligonucleotide enhancing activity in human airway epithelial cells” value ([1]; in vitro) of the same molecule?
**A.** negligible activity

**Q.** What about the “EGFP expression / enhancing activity in MTEC” value [2] of the same molecule?
**A.** notably expressed
